Data: PubChem BioAssay (NCI)
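Each compound was tested at five concentrations against cells in 96-well plates for 48 hours. Abbreviation: GI50, concentration required for 50% inhibition of growth. TGI is the concentration that stops growth completely.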

Tests used:
Test in all cases: growth of human tumour cells (NCI), 48 h
[1] = tested on: MOLT-4 leukemia
[2] = tested on: UO-31 renal
[3] = tested on: HOP-92 NSCLC
[4] = tested on: HCT-15 colon
[5] = tested on: DU-145 prostate
[6] = tested on: SR leukemia
[7] = tested on: SK-MEL-5 melanoma
[8] = tested on: HCT-116 colon
[9] = tested on: BT-549 breast
[10] = tested on: OVCAR-4 ovarian

## CNC(=O)CCN1CCN(CC/C=C2\c3ccccc3Sc3ccc(Cl)cc32)CC1
[1]
  GI50: 6.56 µM
  TGI: > 34.1 µM
[2]
  GI50: 11.4 µM
  TGI: 27.4 µM
[3]
  GI50: 5.75 µM
  TGI: 27 µM
[4]
  GI50: 6.57 µM
  TGI: 20.6 µM
[5]
  GI50: 11.9 µM
  TGI: 26.4 µM
[6]
  GI50: 4.19 µM
  TGI: 18.1 µM
[7]
  GI50: 2.41 µM
  TGI: 6.18 µM
[8]
  GI50: 5.76 µM
  TGI: 20.9 µM
[9]
  GI50: 10.7 µM
  TGI: 24 µM
[10]
  GI50: 13.2 µM
  TGI: 28.2 µM

## N[C@@H]1CCCN(c2c(Br)cnc3[nH]cc(NC(=O)C4CC4)c23)C1
[1]
  GI50: 0.279 µM
  TGI: > 100 µM
[2]
  GI50: 0.232 µM
  TGI: 1.06 µM
[3]
  GI50: 1.02 µM
  TGI: > 55.8 µM
[4]
  GI50: 0.54 µM
  TGI: > 100 µM
[5]
  GI50: 0.459 µM
  TGI: > 100 µM
[6]
  GI50: 0.112 µM
  TGI: > 100 µM
[7]
  GI50: 0.469 µM
  TGI: 2.24 µM
[8]
  GI50: 10.6 µM
  TGI: > 100 µM
[9]
  GI50: 0.45 µM
  TGI: 38 µM
[10]
  GI50: 0.341 µM
  TGI: > 100 µM

## COc1cc(C2CC(c3ccccc3)=NN2C=O)ccc1Oc1ccnc2cc(Cl)ccc12 (stereo not given)
[2]
  GI50: 13.5 µM
  TGI: > 100 µM
[3]
  GI50: 1.5 µM
  TGI: 13.6 µM
[4]
  GI50: > 100 µM
  TGI: > 100 µM
[5]
  GI50: > 100 µM
  TGI: > 100 µM
[6]
  GI50: > 100 µM
  TGI: > 100 µM
[8]
  GI50: 6.07 µM
  TGI: > 100 µM
[9]
  GI50: 2.24 µM
  TGI: 14.1 µM
[10]
  GI50: 4.17 µM
  TGI: 34 µM

## C=C1C(=O)OC2CC(C)C(/C=C/C(C)=O)=CCC12 (stereo not given)
[1]
  TGI: > 100 µM
[3]
  TGI: > 100 µM
[4]
  TGI: > 100 µM
[5]
  TGI: > 100 µM
[6]
  TGI: > 100 µM
[7]
  TGI: > 100 µM
[8]
  TGI: > 100 µM
[9]
  TGI: > 100 µM
[10]
  TGI: > 100 µM
